Each structure is given as a SMILES string. Where “and” joins values, the source holds several entries; their conditions need not be identical. Identical values can stand only once.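 Grown in 96-well plates, cells were treated for 48 hours with each compound at five concentrations. Insufficient inhibition: endpoint recorded as highest concentration tested. At the GI50, growth is halved. TGI: concentration producing complete growth inhibition.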

Test in all cases: NCI-60 cell line screen, 48 h
Assay [1] relates to HOP-92 NSCLC.
The test system of assay [2] is HS 578T breast.
Assay [3] deals with COLO 205 colon.
The subject of assay [4] is SNB-75 CNS.
Assay [5] concerns EKVX NSCLC.
The subject of assay [6] is UO-31 renal.
In assay [7] the test system is BT-549 breast.
The test system of assay [8] is CAKI-1 renal.
Assay [9] deals with HT29 colon.
Assay [10] deals with IGROV1 ovarian.

As for `CN1C(=O)C2(c3ccccc31)N(c1ccc(Cl)cc1)C(=O)C2(c1ccccc1)c1ccccc1` (configuration not stated), the GI50 is 5.62 µM in assay [1]; 21.4 µM in assay [2]; 37.6 µM in assay [3]; 17.8 µM in [4]; 53.3 µM in assay [5]; 27.9 µM in assay [6]. Besides, the GI50 in assay [7] is more than 100 µM; in [8], more than 100 µM; in assay [9] it was 11 µM; in assay [10], more than 100 µM. Further, the TGI in [1] was 49.1 µM; in assay [2], more than 100 µM; in assay [3] it was more than 100 µM; in assay [4] it was 90.5 µM; in assay [5], more than 100 µM; in assay [6], more than 100 µM. Also, the TGI in [7], in assay [8], in assay [9] and in assay [10] was more than 100 µM in each case.

Regarding `CC(=O)c1c(C)[nH]c(-c2nc3ccc(N4CCN(C)CC4)cc3[nH]2)c1-c1ccccc1`, the GI50 in assay [1] is 0.585 µM; in [2], 0.392 µM; in [3], 0.52 µM; in assay [4], 0.0416 µM; in assay [5], 2.03 µM; in [6], 0.374 µM. For the same molecule, the GI50 was 8.81 µM in [7], 0.212 µM in assay [8], 0.437 µM in assay [9] and 1.12 µM in [10]. Also, the TGI was 24.5 µM in assay [1]; 17.2 µM in assay [2]; 17.3 µM in assay [3]; 0.937 µM in assay [4]; more than 100 µM in assay [5]; 11.8 µM in [6]. Besides, the TGI in assay [7] worked out at 29.8 µM; in assay [8], 12.8 µM; in [9] it was 18.5 µM; in assay [10] it was 14.4 µM.

Consider `CC1=C(C(=O)Nc2ccc(Cl)c(C(=O)OC(C)C)c2)SCCO1`, for which the TGI in [1] was more than 100 µM; in assay [2], 73.9 µM; in [3] it was 60 µM; in assay [4], more than 100 µM; in assay [5], more than 95.5 µM; in [6] it was 73 µM. The TGI in assay [7] was more than 100 µM; in [8], more than 100 µM; in assay [9], 50.8 µM; in [10], more than 81.1 µM.

`NS(=O)(=O)OCCCCCCCOS(N)(=O)=O`: the TGI in assay [1] stood at 781 µM; in [2], 1790 µM; in assay [3], 814 µM; in assay [4], 711 µM; in assay [5], 847 µM; in [6], 680 µM. In addition, the TGI in assay [7] stood at 430 µM; in assay [8], 594 µM; in [9], 1630 µM; in assay [10], 937 µM.

As to `CC[C@H](C)[C@H](NC(=O)CN(C)C)C(=O)N(C)[C@H](C[C@@H](OC(C)=O)c1nc(C(=O)NC23CC(C(=O)OC)(C2)C3)cs1)C(C)C`, the GI50 was more than 25 µM in [1]; 0.125 µM in [2]; 0.144 µM in [3]; 0.0883 µM in assay [4]; 1.53 µM in assay [5]; 12.6 µM in assay [6]. The GI50 in assay [7] is 0.151 µM; in assay [8], 12.3 µM; in [9], 0.102 µM; in assay [10], 0.412 µM. The TGI in assay [1] is more than 25 µM; in [2] it was more than 25 µM; in assay [3], 5.59 µM; in [4], more than 25 µM; in assay [5], more than 25 µM; in [6], more than 25 µM. The TGI in assay [7] is more than 13.9 µM; in assay [8] it was more than 25 µM; in [9], more than 25 µM; in assay [10], more than 25 µM.

For the molecule `CSc1ccc2c(c1)C(N1CCN(C)CC1)Cc1ccccc1S2` (configuration not stated), the GI50 in assay [1] is 0.393 µM; in assay [2], 2.51 µM; in [3], 1.76 µM; in assay [4], 1.49 µM; in [5] it was 2.08 µM; in assay [6], 1.8 µM. For the same molecule, the GI50 is 2.84 µM in assay [7], 1.62 µM in [8] and 1.8 µM in assay [9]. Further, the TGI was 7.77 µM and 2.62 µM in [1]; 15.9 µM and 10.9 µM in assay [2]; 3.74 µM and 3.29 µM in [3]; 3.15 µM and 3.87 µM in [4]; 8.64 µM and 7.13 µM in assay [5]; 13.8 µM and 5.44 µM in [6]. Further, the TGI in assay [7] was 17.6 µM and 9.3 µM; in [8], 13.3 µM and 3.33 µM; in assay [9], 6.84 µM and 3.65 µM; in assay [10], 7.3 µM and 4.91 µM.

For the molecule `C=C1C(=O)OC2/C=C(/C)C(OC(C)=O)C/C=C(\C)C(OC(=O)C3(C)OC3C)C(O)C12` (configuration not stated), the TGI in assay [1], in assay [2], in assay [3], in [4], in [5] and in assay [7] was more than 100 µM throughout. Further, the TGI in [8], in assay [9] and in assay [10] was more than 100 µM throughout.

In the case of `Cc1cc(N2CCN(C)CC2)n2nc(-c3ccc(Cl)cc3)nc2n1`, the TGI in assay [1], in assay [2], in assay [3], in assay [4], in assay [5] and in [7] was more than 100 µM in each case. The TGI in [8], in [9] and in assay [10] was more than 100 µM in each case.

The record behind these values is PubChem BioAssay (NCI).
